Reference: patent publication US5126336A, “Antibiotic C-3 catechol-substituted cephalosporin compounds, compositions and method of use thereof” (Bristol-Myers Squibb Company, priority 1990, dated 1992)
In brackets after ≈: the same amount, converted by molar mass. Read-outs that look alike come from different tables or passages of the source.

Columns and labels:
Test in all cases: MIC, agar dilution
Type in all cases: cell-based
P. aeruginosa A9843A = conditions: Pseudomonas aeruginosa, A9843A, 18 h, pH 7.2
How it was run: (§1)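 MICs read after 18 hr at 32° C on Mueller-Hinton agar (pH 7.2) using two-fold serial dilutions and 10^6 cells/ml inoculum. Mouse infection model: intramuscular dosing immediately post-challenge, PD50 derived.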

E. coli Juhl A15119 = conditions: Escherichia coli, JUHLA15119; E. coli Juhl A15119; Mueller-Hinton agar pH 7.2; 32° C., 18 hr; 10^6 cells/ml; read-out: MIC
How it was run: as §1

S. aureus Smith = conditions: Staphylococcus aureus; S. aureus Smith; Mueller-Hinton agar pH 7.2; 32° C., 18 hr; 10^6 cells/ml; read-out: MIC
How it was run: as §1

X. maltophilia No. 661 = conditions: Stenotrophomonas maltophilia, Mueller-Hinton agar pH 7.2, 32° C., 18 hr, 10^6 cells/ml
Description: (§2) Minimum inhibitory concentrations (MICs) of the present series of cephalosporins were determined against 32 strains of test organisms by two-fold serial agar dilution method in Mueller-Hinton agar. Geometric means of MICs were calculated against six groups of the test organisms which are classified as follows and summarized in Table 1.
(§3) Medium; MuellerHinton agar (pH = 7.2)
(§4) Incubation temperature: 32° C., 18 hr
(§5) Inoculum size; 10^6 cells/ml

P. cepacia No. 651 = conditions: Burkholderia cepacia, Mueller-Hinton agar pH 7.2, 32° C., 18 hr, 10^6 cells/ml
Description: as §2, §3, §4, §5

M. morgani 1510/9 = conditions: Mueller-Hinton agar pH 7.2, 32° C., 18 hr, 10^6 cells/ml
Description: as §2, §3, §4, §5

P. aeruginosa IPM-8 = conditions: Pseudomonas aeruginosa, IPM8, Mueller-Hinton agar pH 7.2, 32° C., 18 hr, 10^6 cells/ml
Description: as §2, §3, §4, §5

C. freundii GN 7391 = conditions: Citrobacter freundii, GN7391, Mueller-Hinton agar pH 7.2, 32° C., 18 hr, 10^6 cells/ml
Description: as §2, §3, §4, §5

P. mirabilis IFO-2849 = conditions: Proteus mirabilis, IFO2849, Mueller-Hinton agar pH 7.2, 32° C., 18 hr, 10^6 cells/ml
Description: as §2, §3, §4, §5

P. vulgaris IPM-13 = conditions: Proteus vulgaris, IPM13, Mueller-Hinton agar pH 7.2, 32° C., 18 hr, 10^6 cells/ml
Description: as §2, §3, §4, §5

S. aureus IPM-24 (MRSA) = conditions: Staphylococcus aureus, Mueller-Hinton agar pH 7.2, 32° C., 18 hr, 10^6 cells/ml
Description: as §2, §3, §4, §5

P. aeruginosa IPM-9 = conditions: Pseudomonas aeruginosa, IPM9, Mueller-Hinton agar pH 7.2, 32° C., 18 hr, 10^6 cells/ml
Description: as §2, §3, §4, §5

K. pneumoniae PCI 602 = conditions: Klebsiella pneumoniae, PCI602, Mueller-Hinton agar pH 7.2, 32° C., 18 hr, 10^6 cells/ml
Description: as §2, §3, §4, §5

S. marcescens IPM-16 = conditions: Serratia marcescens, IPM16, Mueller-Hinton agar pH 7.2, 32° C., 18 hr, 10^6 cells/ml
Description: as §2, §3, §4, §5

S. marcescens IPM-15 = conditions: Serratia marcescens, IPM15, Mueller-Hinton agar pH 7.2, 32° C., 18 hr, 10^6 cells/ml
Description: as §2, §3, §4, §5

P. aeruginosa KKA 19 = conditions: Pseudomonas aeruginosa, KKA19, Mueller-Hinton agar pH 7.2, 32° C., 18 hr, 10^6 cells/ml
Description: as §2, §3, §4, §5

M. luteus 1001 = conditions: Micrococcus luteus, Mueller-Hinton agar pH 7.2, 32° C., 18 hr, 10^6 cells/ml
Description: as §2, §3, §4, §5

E. cloacae IPM-12 = conditions: Enterobacter cloacae, IPM12, Mueller-Hinton agar pH 7.2, 32° C., 18 hr, 10^6 cells/ml
Description: as §2, §3, §4, §5

P. aeruginosa A20599 = conditions: Pseudomonas aeruginosa, Mueller-Hinton agar pH 7.2, 32° C., 18 hr, 10^6 cells/ml
Description: as §2, §3, §4, §5

P. rettgeri IPM-14 = conditions: Providencia rettgeri, IPM14, Mueller-Hinton agar pH 7.2, 32° C., 18 hr, 10^6 cells/ml
Description: as §2, §3, §4, §5

E. coli 255 = conditions: Escherichia coli, Mueller-Hinton agar pH 7.2, 32° C., 18 hr, 10^6 cells/ml
Description: as §2, §3, §4, §5

B. subtilis PCI 219 = conditions: Bacillus subtilis, PCI219, Mueller-Hinton agar pH 7.2, 32° C., 18 hr, 10^6 cells/ml
Description: as §2, §3, §4, §5

S. aureus 4-1015 (MRSA) = conditions: Staphylococcus aureus, Mueller-Hinton agar pH 7.2, 32° C., 18 hr, 10^6 cells/ml
Description: as §2, §3, §4, §5

C. terrigena IFO 12685 = conditions: Mueller-Hinton agar pH 7.2, 32° C., 18 hr, 10^6 cells/ml
Description: as §2, §3, §4, §5

S. epidermidis 11-1230 = conditions: Staphylococcus epidermidis, 111230, Mueller-Hinton agar pH 7.2, 32° C., 18 hr, 10^6 cells/ml
Description: as §2, §3, §4, §5

E. faecium A24817 = conditions: Enterococcus faecium, Mueller-Hinton agar pH 7.2, 32° C., 18 hr, 10^6 cells/ml
Description: as §2, §3, §4, §5

S. aureus 209P = conditions: Staphylococcus aureus
Description: as §2, §3, §4, §5

S. epidermidis 11-1168 = conditions: Staphylococcus epidermidis, 111168, Mueller-Hinton agar pH 7.2, 32° C., 18 hr, 10^6 cells/ml
Description: as §2, §3, §4, §5

E. faecalis A9808 = conditions: Enterococcus faecalis, Mueller-Hinton agar pH 7.2, 32° C., 18 hr, 10^6 cells/ml
Description: as §2, §3, §4, §5

X. maltophilia GN 12873 = conditions: Stenotrophomonas maltophilia, GN12873, Mueller-Hinton agar pH 7.2, 32° C., 18 hr, 10^6 cells/ml
Description: as §2, §3, §4, §5

P. cepacia A21213 = conditions: Burkholderia cepacia, Mueller-Hinton agar pH 7.2, 32° C., 18 hr, 10^6 cells/ml
Description: as §2, §3, §4, §5

M. morgani 1510 = conditions: Mueller-Hinton agar pH 7.2, 32° C., 18 hr, 10^6 cells/ml
Description: as §2, §3, §4, §5

Row | SMILES | MIC (P. aeruginosa A9843A) [µg/mL] | MIC (E. coli Juhl A15119) [µg/mL] | MIC (S. aureus Smith) [µg/mL] | MIC (X. maltophilia No. 661) [µg/mL] | MIC (P. cepacia No. 651) [µg/mL] | MIC (M. morgani 1510/9) [µg/mL] | MIC (P. aeruginosa IPM-8) [µg/mL] | MIC (C. freundii GN 7391) [µg/mL] | MIC (P. mirabilis IFO-2849) [µg/mL] | MIC (P. vulgaris IPM-13) [µg/mL] | MIC (S. aureus IPM-24 (MRSA)) [µg/mL] | MIC (P. aeruginosa IPM-9) [µg/mL] | MIC (K. pneumoniae PCI 602) [µg/mL] | MIC (S. marcescens IPM-16) [µg/mL] | MIC (S. marcescens IPM-15) [µg/mL] | MIC (P. aeruginosa KKA 19) [µg/mL] | MIC (M. luteus 1001) [µg/mL] | MIC (E. cloacae IPM-12) [µg/mL] | MIC (P. aeruginosa A20599) [µg/mL] | MIC (P. rettgeri IPM-14) [µg/mL] | also measured
1 | Nc1nc(/C(=N/O)C(=O)NC2C(=O)N3C(C(=O)O)=C(/C=C/Cn4ccc5cc(=O)c(O)cc-5c4)CS[C@H]23)cs1 (stereo partly shown) [Is, 7-[(Z)-2-(2-Aminothiazol-4-yl)-2-hydroxyiminoacetamido]-3-[(E)-3-(2,6-dihydro-7-hydroxy-6-oxo-isoquinolin-2-yl)-1-propen-1-yl]-3-cephem-4-carboxylic acid] | > 100 | 0.2 (≈ 0.352 µM) | 0.8 (≈ 1.41 µM) | > 100 | > 100 | 0.2 (≈ 0.352 µM) | > 100 | > 100 | 0.4 (≈ 0.703 µM) | > 100 | 12.5 (≈ 22 µM) | > 100 | 0.1 (≈ 0.176 µM) | > 100 | > 100 | > 100 | 0.4 (≈ 0.703 µM) | > 100 | > 100 | 1.6 (≈ 2.81 µM) | MIC (E. coli 255): 0.4 µg/mL (≈ 0.703 µM); MIC (B. subtilis PCI 219): 0.8 µg/mL (≈ 1.41 µM); MIC (S. aureus 4-1015 (MRSA)): 3.1 µg/mL (≈ 5.45 µM); MIC (C. terrigena IFO 12685): 1.6 µg/mL (≈ 2.81 µM); MIC (S. epidermidis 11-1230): 3.1 µg/mL (≈ 5.45 µM); MIC (E. faecium A24817): 100 µg/mL (≈ 176 µM); MIC (S. aureus 209P; S. aureus 209P, Mueller-Hinton agar pH 7.2, 32° C., 18 hr, 10^6 cells/ml, read-out: MIC): 0.8 µg/mL (≈ 1.41 µM); MIC (S. epidermidis 11-1168): 6.3 µg/mL (≈ 11.1 µM); MIC (E. faecalis A9808): 6.3 µg/mL (≈ 11.1 µM); MIC (X. maltophilia GN 12873): > 100 µg/mL; MIC (P. cepacia A21213): > 100 µg/mL; MIC (M. morgani 1510): 12.5 µg/mL (≈ 22 µM)
2 | Nc1nc(/C(=N/O)C(=O)NC2C(=O)N3C(C(=O)O)=C(/C=C/Cn4cnc5cc(O)c(O)cc54)CS[C@H]23)cs1 (stereo partly shown) [Ir, 7-[(Z)-2-(2-Aminothiazol-4-yl)-2-hydroxyiminoacetamido]-3-[(E)-3-(5,6-dihydroxybenzimidazol-1-yl)-1-propen-1-yl]-3-cephem-4-carboxylic acid] | 6.3 (≈ 11.3 µM) | 0.4 (≈ 0.717 µM) | 1.6 (≈ 2.87 µM) | > 100 | > 100 | 0.8 (≈ 1.43 µM) | 3.1 (≈ 5.56 µM) | 50 (≈ 89.7 µM) | 0.8 (≈ 1.43 µM) | > 100 | 100 (≈ 179 µM) | > 100 | 0.1 (≈ 0.179 µM) | > 100 | 100 (≈ 179 µM) | 12.5 (≈ 22.4 µM) | 0.8 (≈ 1.43 µM) | > 100 | 12.5 (≈ 22.4 µM) | 3.1 (≈ 5.56 µM) | MIC (E. coli 255): 0.8 µg/mL (≈ 1.43 µM); MIC (B. subtilis PCI 219): 1.6 µg/mL (≈ 2.87 µM); MIC (S. aureus 4-1015 (MRSA)): 12.5 µg/mL (≈ 22.4 µM); MIC (C. terrigena IFO 12685): 3.1 µg/mL (≈ 5.56 µM); MIC (S. epidermidis 11-1230): 12.5 µg/mL (≈ 22.4 µM); MIC (E. faecium A24817): > 100 µg/mL; MIC (S. aureus 209P; 209P, 18 h, pH 7.2): 3.1 µg/mL (≈ 5.56 µM); MIC (S. epidermidis 11-1168): 12.5 µg/mL (≈ 22.4 µM); MIC (E. faecalis A9808): 12.5 µg/mL (≈ 22.4 µM); MIC (X. maltophilia GN 12873): > 100 µg/mL; MIC (P. cepacia A21213): > 100 µg/mL; MIC (M. morgani 1510): 25 µg/mL (≈ 44.8 µM)
